Results from the NIST ThermoML archive (doi:10.1021/acs.jced.6b00655).
Where “and” joins values, the source holds several entries; their conditions need not be identical. Equal values may be shown once. ± gives the expanded uncertainty stated by the source.

Tests used:
[1] = 283.15 K; 100 kPa; Liquid; Vibrating tube method
[2] = xn = mol fraction of the nth substance listed; conditions: 283.15 K, 100 kPa, Liquid, Vibrating tube method

## CCCC[N+]1(C)CCCC1.O=S(=O)([N-]S(=O)(=O)C(F)(F)F)C(F)(F)F
[1]
  mass density: 1410.45 ± 10 kg/m3 and 1407.6 ± 10 kg/m3

## CCCC[N+]1(C)CCCC1.O=S(=O)([N-]S(=O)(=O)C(F)(F)F)C(F)(F)F + CCc1ccccc1
[2]; x2 = 0
  mass density: 1410.45 ± 10 kg/m3
[2]; x2 = 0.312
  mass density: 1332.47 ± 10 kg/m3
[2]; x2 = 0.417
  mass density: 1296.15 ± 11 kg/m3
[2]; x2 = 0.489
  mass density: 1268.45 ± 11 kg/m3
[2]; x2 = 0.636
  mass density: 1201.58 ± 11 kg/m3

## CCCC[N+]1(C)CCCC1.O=S(=O)([N-]S(=O)(=O)C(F)(F)F)C(F)(F)F + Cc1ccc(C)cc1
[2]; x2 = 0
  mass density: 1407.6 ± 10 kg/m3
[2]; x2 = 0.207
  mass density: 1361.17 ± 10 kg/m3
[2]; x2 = 0.357
  mass density: 1315.5 ± 11 kg/m3
[2]; x2 = 0.507
  mass density: 1254.4 ± 11 kg/m3
[2]; x2 = 0.617
  mass density: 1193.73 ± 11 kg/m3

## CCCC[N+]1(C)CCCC1.O=S(=O)([N-]S(=O)(=O)C(F)(F)F)C(F)(F)F + Cc1cccc(C)c1
[2]; x2 = 0
  mass density: 1410.45 ± 10 kg/m3
[2]; x2 = 0.206
  mass density: 1361.63 ± 10 kg/m3
[2]; x2 = 0.372
  mass density: 1318.08 ± 11 kg/m3
[2]; x2 = 0.491
  mass density: 1259.92 ± 11 kg/m3
[2]; x2 = 0.616
  mass density: 1191.7 ± 11 kg/m3

## CCCC[N+]1(C)CCCC1.O=S(=O)([N-]S(=O)(=O)C(F)(F)F)C(F)(F)F + Cc1ccccc1
[2]; x2 = 0
  mass density: 1407.6 ± 10 kg/m3
[2]; x2 = 0.509
  mass density: 1276.06 ± 11 kg/m3
[2]; x2 = 0.574
  mass density: 1250.95 ± 11 kg/m3
[2]; x2 = 0.611
  mass density: 1228.59 ± 12 kg/m3
[2]; x2 = 0.73
  mass density: 1160.93 ± 12 kg/m3

## CCCC[N+]1(C)CCCC1.O=S(=O)([N-]S(=O)(=O)C(F)(F)F)C(F)(F)F + Cc1ccccc1C
[2]; x2 = 0
  mass density: 1407.6 ± 10 kg/m3
[2]; x2 = 0.21
  mass density: 1360.77 ± 10 kg/m3
[2]; x2 = 0.409
  mass density: 1303.44 ± 11 kg/m3
[2]; x2 = 0.622
  mass density: 1224.4 ± 11 kg/m3
[2]; x2 = 0.673
  mass density: 1207.6 ± 11 kg/m3

## CCCC[N+]1(C)CCCC1.O=S(=O)([N-]S(=O)(=O)C(F)(F)F)C(F)(F)F + c1ccccc1
[2]; x2 = 0
  mass density: 1410.45 ± 10 kg/m3
[2]; x2 = 0.106
  mass density: 1394.11 ± 10 kg/m3
[2]; x2 = 0.309
  mass density: 1355.03 ± 10 kg/m3
[2]; x2 = 0.505
  mass density: 1296.91 ± 11 kg/m3
[2]; x2 = 0.714
  mass density: 1203.57 ± 11 kg/m3
[2]; x2 = 0.813
  mass density: 1133.23 ± 12 kg/m3

## CCCC[N+]1(C)CCCC1.N#CN=C=[N-] [1-butyl-1-methylpyrrolidinium dicyanamide]
[1]
  mass density: 1021.84 ± 10 kg/m3 and 1022.97 ± 10 kg/m3 and 1022.94 ± 10 kg/m3

## CCCC[N+]1(C)CCCC1.N#CN=C=[N-] [1-butyl-1-methylpyrrolidinium dicyanamide] + CCc1ccccc1
[2]; x2 = 0
  mass density: 1022.97 ± 10 kg/m3
[2]; x2 = 0.044
  mass density: 1020.28 ± 10 kg/m3
[2]; x2 = 0.11
  mass density: 1016.49 ± 10 kg/m3
[2]; x2 = 0.2
  mass density: 1010.5 ± 10 kg/m3
[2]; x2 = 0.307
  mass density: 1002.43 ± 10 kg/m3
[2]; x2 = 0.359
  mass density: 997.98 ± 10 kg/m3
[2]; x2 = 0.397
  mass density: 994.71 ± 10 kg/m3

## CCCC[N+]1(C)CCCC1.N#CN=C=[N-] [1-butyl-1-methylpyrrolidinium dicyanamide] + Cc1ccc(C)cc1
[2]; x2 = 0
  mass density: 1022.94 ± 10 kg/m3
[2]; x2 = 0.055
  mass density: 1019.77 ± 10 kg/m3
[2]; x2 = 0.109
  mass density: 1015.55 ± 10 kg/m3
[2]; x2 = 0.21
  mass density: 1009.54 ± 10 kg/m3
[2]; x2 = 0.27
  mass density: 1005.7 ± 10 kg/m3
[2]; x2 = 0.335
  mass density: 1000.17 ± 10 kg/m3
[2]; x2 = 0.389
  mass density: 993.97 ± 10 kg/m3

## CCCC[N+]1(C)CCCC1.N#CN=C=[N-] [1-butyl-1-methylpyrrolidinium dicyanamide] + Cc1cccc(C)c1
[2]; x2 = 0
  mass density: 1022.94 ± 10 kg/m3
[2]; x2 = 0.057
  mass density: 1019.68 ± 10 kg/m3
[2]; x2 = 0.112
  mass density: 1016.11 ± 10 kg/m3
[2]; x2 = 0.202
  mass density: 1009.68 ± 10 kg/m3
[2]; x2 = 0.26
  mass density: 1006.3 ± 10 kg/m3
[2]; x2 = 0.318
  mass density: 1000.45 ± 10 kg/m3
[2]; x2 = 0.388
  mass density: 995.25 ± 10 kg/m3

## CCCC[N+]1(C)CCCC1.N#CN=C=[N-] [1-butyl-1-methylpyrrolidinium dicyanamide] + Cc1ccccc1
[2]; x2 = 0
  mass density: 1022.97 ± 10 kg/m3
[2]; x2 = 0.054
  mass density: 1020.33 ± 10 kg/m3
[2]; x2 = 0.103
  mass density: 1018.02 ± 10 kg/m3
[2]; x2 = 0.205
  mass density: 1012.43 ± 10 kg/m3
[2]; x2 = 0.304
  mass density: 1006.23 ± 10 kg/m3
[2]; x2 = 0.387
  mass density: 1000.63 ± 10 kg/m3
[2]; x2 = 0.454
  mass density: 993.84 ± 10 kg/m3
[2]; x2 = 0.528
  mass density: 986.94 ± 10 kg/m3

## CCCC[N+]1(C)CCCC1.N#CN=C=[N-] [1-butyl-1-methylpyrrolidinium dicyanamide] + Cc1ccccc1C
[2]; x2 = 0
  mass density: 1022.97 ± 10 kg/m3
[2]; x2 = 0.001
  mass density: 1022.98 ± 10 kg/m3
[2]; x2 = 0.102
  mass density: 1018.02 ± 10 kg/m3
[2]; x2 = 0.202
  mass density: 1011.22 ± 10 kg/m3
[2]; x2 = 0.305
  mass density: 1005.51 ± 10 kg/m3
[2]; x2 = 0.385
  mass density: 999.83 ± 10 kg/m3
[2]; x2 = 0.433
  mass density: 997.35 ± 10 kg/m3

## CCCC[N+]1(C)CCCC1.N#CN=C=[N-] [1-butyl-1-methylpyrrolidinium dicyanamide] + c1ccccc1
[2]; x2 = 0
  mass density: 1021.84 ± 10 kg/m3
[2]; x2 = 0.051
  mass density: 1020.09 ± 10 kg/m3
[2]; x2 = 0.099
  mass density: 1018.22 ± 10 kg/m3
[2]; x2 = 0.199
  mass density: 1014.33 ± 10 kg/m3
[2]; x2 = 0.293
  mass density: 1009.95 ± 10 kg/m3
[2]; x2 = 0.401
  mass density: 1004.03 ± 10 kg/m3
[2]; x2 = 0.505
  mass density: 996.7 ± 10 kg/m3
[2]; x2 = 0.61
  mass density: 987.41 ± 10 kg/m3
[2]; x2 = 0.637
  mass density: 984.55 ± 10 kg/m3
[2]; x2 = 0.665
  mass density: 981.11 ± 10 kg/m3
[2]; x2 = 0.69
  mass density: 978.4 ± 10 kg/m3
[2]; x2 = 0.718
  mass density: 973.87 ± 10 kg/m3

## CCCC[N+]1(C)CCCC1.O=S(=O)([O-])C(F)(F)F [1-butyl-1-methylpyrrolidinium trifluoromethanesulfonate]
[1]
  mass density: 1263.28 ± 10 kg/m3 and 1263.17 ± 10 kg/m3

## CCCC[N+]1(C)CCCC1.O=S(=O)([O-])C(F)(F)F [1-butyl-1-methylpyrrolidinium trifluoromethanesulfonate] + CCc1ccccc1
[2]; x2 = 0
  mass density: 1263.17 ± 10 kg/m3
[2]; x2 = 0.044
  mass density: 1254.99 ± 10 kg/m3
[2]; x2 = 0.107
  mass density: 1240.68 ± 10 kg/m3
[2]; x2 = 0.209
  mass density: 1220.18 ± 10 kg/m3
[2]; x2 = 0.309
  mass density: 1193.98 ± 10 kg/m3
[2]; x2 = 0.391
  mass density: 1174.45 ± 10 kg/m3
[2]; x2 = 0.42
  mass density: 1164.28 ± 11 kg/m3

## CCCC[N+]1(C)CCCC1.O=S(=O)([O-])C(F)(F)F [1-butyl-1-methylpyrrolidinium trifluoromethanesulfonate] + Cc1ccc(C)cc1
[2]; x2 = 0
  mass density: 1263.17 ± 10 kg/m3
[2]; x2 = 0.053
  mass density: 1249.16 ± 10 kg/m3
[2]; x2 = 0.102
  mass density: 1242.37 ± 10 kg/m3
[2]; x2 = 0.203
  mass density: 1216.86 ± 10 kg/m3
[2]; x2 = 0.306
  mass density: 1195.95 ± 10 kg/m3
[2]; x2 = 0.361
  mass density: 1180.48 ± 10 kg/m3
[2]; x2 = 0.415
  mass density: 1164.5 ± 10 kg/m3

## CCCC[N+]1(C)CCCC1.O=S(=O)([O-])C(F)(F)F [1-butyl-1-methylpyrrolidinium trifluoromethanesulfonate] + Cc1cccc(C)c1
[2]; x2 = 0
  mass density: 1263.17 ± 10 kg/m3
[2]; x2 = 0.054
  mass density: 1253.29 ± 10 kg/m3
[2]; x2 = 0.11
  mass density: 1241.72 ± 10 kg/m3
[2]; x2 = 0.202
  mass density: 1221.84 ± 10 kg/m3
[2]; x2 = 0.308
  mass density: 1195.52 ± 10 kg/m3
[2]; x2 = 0.352
  mass density: 1184.04 ± 10 kg/m3
[2]; x2 = 0.402
  mass density: 1170.32 ± 10 kg/m3
[2]; x2 = 0.418
  mass density: 1165.83 ± 10 kg/m3

## CCCC[N+]1(C)CCCC1.O=S(=O)([O-])C(F)(F)F [1-butyl-1-methylpyrrolidinium trifluoromethanesulfonate] + Cc1ccccc1
[2]; x2 = 0
  mass density: 1263.17 ± 10 kg/m3
[2]; x2 = 0.052
  mass density: 1255.13 ± 10 kg/m3
[2]; x2 = 0.102
  mass density: 1246.47 ± 10 kg/m3
[2]; x2 = 0.221
  mass density: 1223.94 ± 10 kg/m3
[2]; x2 = 0.313
  mass density: 1203.6 ± 10 kg/m3
[2]; x2 = 0.4
  mass density: 1181.98 ± 10 kg/m3
[2]; x2 = 0.516
  mass density: 1147.19 ± 10 kg/m3
[2]; x2 = 0.579
  mass density: 1124.97 ± 11 kg/m3

## CCCC[N+]1(C)CCCC1.O=S(=O)([O-])C(F)(F)F [1-butyl-1-methylpyrrolidinium trifluoromethanesulfonate] + Cc1ccccc1C
[2]; x2 = 0
  mass density: 1263.17 ± 10 kg/m3
[2]; x2 = 0.054
  mass density: 1252.3 ± 10 kg/m3
[2]; x2 = 0.107
  mass density: 1243.62 ± 10 kg/m3
[2]; x2 = 0.19
  mass density: 1225.81 ± 10 kg/m3
[2]; x2 = 0.308
  mass density: 1197.9 ± 10 kg/m3
[2]; x2 = 0.399
  mass density: 1174.56 ± 10 kg/m3
[2]; x2 = 0.451
  mass density: 1160.97 ± 10 kg/m3
